Source: patent publication US9867879B2 (Vanderbilt University, priority 2015, dated 2018)

Legend:
[1] = biological target: T1, mammalian PPO (Homo sapiens, UniProt P50336); experiment: Activation of mammalian PPO; format: biochemical
T1 sequence (P50336 1-477): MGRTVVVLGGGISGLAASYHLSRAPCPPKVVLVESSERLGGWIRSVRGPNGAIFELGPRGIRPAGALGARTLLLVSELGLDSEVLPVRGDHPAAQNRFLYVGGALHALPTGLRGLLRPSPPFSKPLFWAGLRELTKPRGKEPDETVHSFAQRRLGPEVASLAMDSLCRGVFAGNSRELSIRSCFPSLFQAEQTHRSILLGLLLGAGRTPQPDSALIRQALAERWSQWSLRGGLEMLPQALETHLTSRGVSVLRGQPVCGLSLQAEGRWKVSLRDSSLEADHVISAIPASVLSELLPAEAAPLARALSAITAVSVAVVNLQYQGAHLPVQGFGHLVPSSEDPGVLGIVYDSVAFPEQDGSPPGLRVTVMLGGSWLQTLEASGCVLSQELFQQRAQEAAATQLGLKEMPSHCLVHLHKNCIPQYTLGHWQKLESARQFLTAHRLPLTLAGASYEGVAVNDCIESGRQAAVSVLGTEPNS

[2] = biological target: T2, wild type S. aureus hemY (Staphylococcus aureus, UniProt Q2FXA5); experiment: Activation of hemY, wild type; format: biochemical
T2 sequence (Q2FXA5 1-466): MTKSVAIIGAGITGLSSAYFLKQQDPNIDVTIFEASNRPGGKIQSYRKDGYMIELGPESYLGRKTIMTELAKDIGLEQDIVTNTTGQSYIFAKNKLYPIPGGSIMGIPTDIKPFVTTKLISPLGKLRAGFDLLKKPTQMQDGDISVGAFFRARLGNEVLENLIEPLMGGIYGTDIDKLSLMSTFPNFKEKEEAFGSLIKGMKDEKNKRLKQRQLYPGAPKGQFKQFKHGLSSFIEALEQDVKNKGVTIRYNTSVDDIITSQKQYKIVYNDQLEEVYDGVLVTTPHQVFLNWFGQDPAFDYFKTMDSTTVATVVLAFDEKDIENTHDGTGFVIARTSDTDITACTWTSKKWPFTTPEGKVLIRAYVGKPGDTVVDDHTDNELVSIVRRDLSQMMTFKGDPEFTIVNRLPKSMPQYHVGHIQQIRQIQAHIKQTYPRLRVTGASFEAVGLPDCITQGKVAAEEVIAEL

[3] = test system: heme biosynthetic pathway; experiment: Accumulation of heme precursor molecules; format: cell-based, S. aureus; conditions: data not shown
From the text: Because ALA is the first committed precursor molecule in the heme biosynthetic pathway, if ALA is contacted with bacteria, the bacteria will generated enhanced amounts of all of the heme precursor molecules downstream of ALA.

[4] = test system: hemY/PPO; experiment: Activation of hemY/PPO, Propionibacterium acnes; format: biochemical
[5] = biological target: hemY/PPO (Bacillus subtilis, UniProt P32397); experiment: Activation of hemY/PPO, Bacillus subtilis; format: biochemical
[6] = biological target: T183K point mutant of hemY (Staphylococcus aureus, UniProt Q2FXA5, T183K); experiment: Activation of hemY, T183K mutant; format: biochemical, S. aureus
[7] = test system: S. aureus; experiment: Phototherapy: compound plus light, CFU count; format: cell-based
Experimental: Briefly, S. aureus was incubated with the 882 compound for 30 minutes at 37° C., treated with light for 45 minutes (500 W halogen), and then a colony-forming unit (CFU) count was conducted.

Chain of hemY/PPO (Bacillus subtilis, UniProt P32397) (P32397 whole entry): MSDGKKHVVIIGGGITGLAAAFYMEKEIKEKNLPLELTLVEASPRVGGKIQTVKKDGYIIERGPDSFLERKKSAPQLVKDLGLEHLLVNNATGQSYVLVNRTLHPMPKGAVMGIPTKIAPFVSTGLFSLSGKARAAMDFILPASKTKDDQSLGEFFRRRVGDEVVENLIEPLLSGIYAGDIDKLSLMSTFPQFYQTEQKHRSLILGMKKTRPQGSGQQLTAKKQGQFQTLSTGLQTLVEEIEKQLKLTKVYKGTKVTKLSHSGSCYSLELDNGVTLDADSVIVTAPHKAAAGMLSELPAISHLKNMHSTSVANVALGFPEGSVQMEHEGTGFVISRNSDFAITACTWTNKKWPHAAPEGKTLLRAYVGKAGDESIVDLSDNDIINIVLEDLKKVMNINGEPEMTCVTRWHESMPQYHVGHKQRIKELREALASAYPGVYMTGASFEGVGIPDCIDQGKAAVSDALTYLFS

Oc1c(-c2cc(-c3ccco3)[nH]n2)ccc2ccccc12 [882 compound]
activation of PPO [1]: activates | activation of hemY [2]: activates wild type S. aureus hemY | PPIX accumulation [3]: does increase PPIX accumulation | accumulation of PBG [3]: does not | activation of hemY/PPO [4]: activates | activation of hemY/PPO [5]: activates hemY/PPO in Bacillus subtilis | activation of hemY [6]: not the T183K point mutant of hemY | toxicity with light compared to ALA and light ([7]; 882 50 μM and light vs ALA 10 mg/mL and light): more toxic to the bacteria than ALA | photosensitization ([7]; 30 min at 37° C., light 45 min (500 W halogen), CFU count): leads to staphylococcal photosensitization
